According to ChEMBL document CHEMBL4385672, “Design, synthesis and biological evaluation of 2-(3,4-dimethoxyphenyl)-6 (1,2,3,6-tetrahydropyridin-4-yl)imidazo[1,2-a]pyridine analogues as antiproliferative agents” (Bioorg Med Chem Lett, 2019):
Calls of active or inactive are those of the source. The calls are words filed in the database; no cut-off is given here.

What was measured:
A549 [1] = assay: Antiproliferative activity against human A549 cells at 10 to 100 uM incubated for 48 hrs by MTT assay; assay type: functional, cell-based
B16-F10 [2] = assay: Antiproliferative activity against mouse B16F10 cells at 10 to 100 uM incubated for 48 hrs by MTT assay; assay type: functional, cell-based
HeLa [3] = assay: Antiproliferative activity against human HeLa cells at 10 to 100 uM incubated for 48 hrs by MTT assay; assay type: functional, cell-based
B16-F10 [4] = assay: Antiproliferative activity against mouse B16F10 cells incubated for 48 hrs by MTT assay; assay type: functional, cell-based; conditions: B16-F10, 48 h
HeLa [5] = assay: Antiproliferative activity against human HeLa cells incubated for 48 hrs by MTT assay; assay type: functional, cell-based
B16-F10 [6] = assay: Induction of apoptosis in mouse B16F10 cells assessed as early apoptosis cells level at 7 uM incubated for 48 hrs by Annexin V-FITC and PI staining based flow cytometry (reference value: 0.03 +/- 0.013%); assay type: functional
A549 [7] = assay: Antiproliferative activity against human A549 cells incubated for 48 hrs by MTT assay; assay type: functional, cell-based; conditions: A549, 48 h
[8] = Selectivity index, ratio of IC50 for cytotoxicity in HEK293 cells assessed as reduction in cell viability incubated for 48 hrs by MTT assay to IC50 for antiproliferative activity against human A549 cells incubated for 48 hrs by MTT assay; assay type: toxicity, cell-based; conditions: read-out: Ratio IC50
HEK293 = assay: Cytotoxicity in HEK293 cells assessed as reduction in cel viability incubated for 48 hrs by MTT assay; assay type: cell-based; conditions: Homo sapiens, HEK293, 48 h
[9] = Selectivity index, ratio of IC50 for cytotoxicity in HEK293 cells assessed as reduction in cell viability incubated for 48 hrs by MTT assay to IC50 for antiproliferative activity against human HeLa cells incubated for 48 hrs by MTT assay; assay type: toxicity, cell-based; conditions: read-out: Ratio IC50
[10] = Selectivity index, ratio of IC50 for cytotoxicity in HEK293 cells assessed as reduction in cell viability incubated for 48 hrs by MTT assay to IC50 for antiproliferative activity against mouse B16F10 cells incubated for 48 hrs by MTT assay; assay type: toxicity, cell-based; conditions: read-out: Ratio IC50
B16-F10 [11] = assay: Induction of apoptosis in mouse B16F10 cells assessed as late apoptosis cells level at 7 uM incubated for 48 hrs by Annexin V-FITC and PI staining based flow cytometry (reference value: 0.02 +/- 0.21%); assay type: functional

| SMILES | Activity (A549 [1]) | Activity (B16-F10 [2]) | Activity (HeLa [3]) | IC50 (B16-F10 [4]) | IC50 (HeLa [5]) | Activity (B16-F10 [6]) | IC50 (A549 [7]) | selectivity ratio at 48 h [8] | IC50 (HEK293) | selectivity ratio at 48 h [9] | selectivity ratio at 48 h [10] | Activity (B16-F10 [11]) |
| --- | --- | --- | --- | --- | --- | --- | --- | --- | --- | --- | --- | --- |
| COc1ccc(-c2cn3cc(C4=CCN(S(=O)(=O)CC(C)C)CC4)ccc3n2)cc1OC | Active | Active | Active | – | – | – | – | – | – | – | – | – |
| COc1ccc(-c2cn3cc(C4=CCN(S(=O)(=O)C5CCCC5)CC4)ccc3n2)cc1OC | Active | Active | Active | 7.69 µM | 6.47 µM | 35.4% | 6.47 µM | 10 to 14 | 102 µM | 10 to 14 | 10 to 14 | 55.6% |
| COc1ccc(-c2cn3cc(C4=CCN(S(=O)(=O)c5ccc(C(C)=O)cc5)CC4)ccc3n2)cc1OC | Active | Active | Active | – | – | – | – | – | – | – | – | – |
| COc1ccc(-c2cn3cc(C4=CCN(C(=O)c5cccs5)CC4)ccc3n2)cc1OC | Active | Active | Active | 19.5 µM | 16 µM | – | 5.2 µM | 10 to 14 | 98.1 µM | 10 to 14 | 10 to 14 | – |
| COc1ccc(-c2cn3cc(C4=CCN(S(=O)(=O)c5ccccc5)CC4)ccc3n2)cc1OC | Active | Active | Active | 13.2 µM | 12.6 µM | – | 7.66 µM | 10 to 14 | 65.6 µM | 10 to 14 | 10 to 14 | – |
| COc1ccc(-c2cn3cc(C4=CCN(S(=O)(=O)c5ccccc5[N+](=O)[O-])CC4)ccc3n2)cc1OC | Active | Active | Active | – | – | – | – | – | – | – | – | – |
| COc1ccc(-c2cn3cc(C4=CCN(C(=O)c5ccccc5C(F)(F)F)CC4)ccc3n2)cc1OC | Active | Active | Active | 8.11 µM | 7.95 µM | – | 2.55 µM | 10 to 14 | 82.9 µM | 10 to 14 | 10 to 14 | – |
| COc1ccc(S(=O)(=O)N2CC=C(c3ccc4nc(-c5ccc(OC)c(OC)c5)cn4c3)CC2)cc1 | Active | Active | Active | – | – | – | – | – | – | – | – | – |
| COc1ccc(-c2cn3cc(C4=CCN(S(=O)(=O)CCc5ccccc5)CC4)ccc3n2)cc1OC | Active | Active | Active | 8.08 µM | 8.98 µM | – | 7.69 µM | 10 to 14 | 70.3 µM | 10 to 14 | 10 to 14 | – |
| COc1ccc(-c2cn3cc(C4=CCN(C(=O)c5ccc(F)cc5)CC4)ccc3n2)cc1OC | Active | Active | Active | – | – | – | – | – | – | – | – | – |
| COc1ccc(-c2cn3cc(C4=CCNCC4)ccc3n2)cc1OC | Active | Active | Active | – | – | – | – | – | – | – | – | – |
| CCCS(=O)(=O)N1CC=C(c2ccc3nc(-c4ccc(OC)c(OC)c4)cn3c2)CC1 | Active | Active | Active | – | – | – | – | – | – | – | – | – |
| CCS(=O)(=O)N1CC=C(c2ccc3nc(-c4ccc(OC)c(OC)c4)cn3c2)CC1 | Active | Active | Active | – | – | – | – | – | – | – | – | – |
| COc1ccc(-c2cn3cc(C4=CCN(C(=O)c5ccc(F)cc5F)CC4)ccc3n2)cc1OC | Active | Active | Active | – | – | – | – | – | – | – | – | – |
| COc1ccc(-c2cn3cc(C4=CCN(C(=O)C5CC5)CC4)ccc3n2)cc1OC | Active | Active | Active | 19.4 µM | 15.8 µM | – | 9.14 µM | 10 to 14 | 77.5 µM | 10 to 14 | 10 to 14 | – |
| COc1ccc(-c2cn3cc(C4=CCN(S(=O)(=O)c5ccc(C(F)(F)F)cc5)CC4)ccc3n2)cc1OC | Active | Active | Active | – | – | – | – | – | – | – | – | – |
| COc1ccc(-c2cn3cc(C4=CCN(C(C)=O)CC4)ccc3n2)cc1OC | Active | Active | Active | – | – | – | – | – | – | – | – | – |
| COc1ccc(-c2cn3cc(C4=CCN(S(=O)(=O)c5ccc([N+](=O)[O-])cc5)CC4)ccc3n2)cc1OC | Active | Active | Active | – | – | – | – | – | – | – | – | – |
| Nc1ccccc1NC(=O)c1cnccn1 | – | – | – | 34.6 µM | 28.3 µM | – | 29.1 µM | – | – | – | – | – |
| COc1ccc(-c2cn3cc(C4=CCN(C(=O)c5cocn5)CC4)ccc3n2)cc1OC | Active | Active | Active | – | – | – | – | – | – | – | – | – |

| SMILES | Activity (A549 [1]) | Activity (B16-F10 [2]) | Activity (HeLa [3]) | IC50 (B16-F10 [4]) | IC50 (HeLa [5]) | Activity (B16-F10 [6]) | IC50 (A549 [7]) | selectivity ratio at 48 h [8] | IC50 (HEK293) | selectivity ratio at 48 h [9] | selectivity ratio at 48 h [10] | Activity (B16-F10 [11]) |
| --- | --- | --- | --- | --- | --- | --- | --- | --- | --- | --- | --- | --- |
| C=CC(=O)N1CC=C(c2ccc3nc(-c4ccc(OC)c(OC)c4)cn3c2)CC1 | Active | Active | Active | – | – | – | – | – | – | – | – | – |
| COc1ccc(-c2cn3cc(C4=CCN(S(=O)(=O)C(F)(F)F)CC4)ccc3n2)cc1OC | Active | Active | Active | – | – | – | – | – | – | – | – | – |
| COc1ccc(-c2cn3cc(C4=CCN(S(=O)(=O)c5ccc(Cl)s5)CC4)ccc3n2)cc1OC | Active | Active | Active | – | – | – | – | – | – | – | – | – |
| COc1ccc(-c2cn3cc(C4=CCN(S(=O)(=O)c5ccc(Br)cc5)CC4)ccc3n2)cc1OC | Active | Active | Active | – | – | – | – | – | – | – | – | – |
| COc1ccc(-c2cn3cc(C4=CCN(S(=O)(=O)C5CC5)CC4)ccc3n2)cc1OC | Active | Active | Active | – | – | – | – | – | – | – | – | – |
| COc1ccc(-c2cn3cc(C4=CCN(C(=O)c5cccc(F)c5)CC4)ccc3n2)cc1OC | Active | Active | Active | – | – | – | – | – | – | – | – | – |
| COc1ccc(-c2cn3cc(C4=CCN(C(=O)c5cccc(C(F)(F)F)c5)CC4)ccc3n2)cc1OC | Active | Active | Active | 7.89 µM | 4.86 µM | – | 3.69 µM | 10 to 14 | 68.4 µM | 10 to 14 | 10 to 14 | – |
| COc1ccc(-c2cn3cc(C4=CCN(S(=O)(=O)c5ccc(C)cc5)CC4)ccc3n2)cc1OC | Active | Active | Active | – | – | – | – | – | – | – | – | – |
| COc1ccc(-c2cn3cc(C4=CCN(S(=O)(=O)C5CCCCC5)CC4)ccc3n2)cc1OC | Active | Active | Active | 11.1 µM | 9.99 µM | – | 4.49 µM | 10 to 14 | 75 µM | 10 to 14 | 10 to 14 | – |
| COc1ccc(-c2cn3cc(C4=CCN(C(=O)C(F)(F)F)CC4)ccc3n2)cc1OC | Active | Active | Active | – | – | – | – | – | – | – | – | – |
| COc1ccc(-c2cn3cc(C4=CCN(C(=O)c5ccccn5)CC4)ccc3n2)cc1OC | Active | Active | Active | – | – | – | – | – | – | – | – | – |
| COc1ccc(-c2cn3cc(C4=CCN(C(=O)C5CCCCC5)CC4)ccc3n2)cc1OC | Active | Active | Active | 10.9 µM | 8.06 µM | – | 7.31 µM | 10 to 14 | 72.1 µM | 10 to 14 | 10 to 14 | – |
| COc1ccc(-c2cn3cc(C4=CCN(C(=O)COCc5ccccc5)CC4)ccc3n2)cc1OC | Active | Active | Active | – | – | – | – | – | – | – | – | – |
| COc1ccc(-c2cn3cc(C4=CCN(S(=O)(=O)c5ccc(F)cc5)CC4)ccc3n2)cc1OC | Active | Active | Active | – | – | – | – | – | – | – | – | – |
| COc1ccc(-c2cn3cc(C4=CCN(C(=O)c5ccco5)CC4)ccc3n2)cc1OC | Active | Active | Active | – | – | – | – | – | – | – | – | – |
| COc1ccc(-c2cn3cc(C4=CCN(S(=O)(=O)c5ccc(Cl)cc5)CC4)ccc3n2)cc1OC | Active | Active | Active | – | – | – | – | – | – | – | – | – |
| COc1ccc(-c2cn3cc(C4=CCN(C(=O)c5ccccc5F)CC4)ccc3n2)cc1OC | Active | Active | Active | – | – | – | – | – | – | – | – | – |
| COc1ccc(-c2cn3cc(C4=CCN(S(=O)(=O)c5ccc(Br)s5)CC4)ccc3n2)cc1OC | Active | Active | Active | – | – | – | – | – | – | – | – | – |
| COc1ccc(-c2cn3cc(C4=CCN(S(=O)(=O)c5ccc(C(C)(C)C)cc5)CC4)ccc3n2)cc1OC | Active | Active | Active | – | – | – | – | – | – | – | – | – |
| COc1ccc(-c2cn3cc(C4=CCN(C(=O)N(C)C)CC4)ccc3n2)cc1OC | Active | Active | Active | – | – | – | – | – | – | – | – | – |
